# Results reported in US10662187B2, “Bruton's tyrosine kinase inhibitors” (Zibo Biopolar Changsheng Pharmaceutical Co. Ltd., priority 2016, dated 2020).
# Assays:
# [1] = molecular target: T1, BTK (Homo sapiens (Human), UniProt Q06187); assay: Btk kinase assay (HTRF); format: biochemical; details: [ATP]=80 μM, BTK=3.4 nM; read-out: BTK Inhibition
# In short: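 HTRF read-out with enzyme, inhibitor, ATP and 1 μM peptide substrate in 50 mM Hepes pH 7.0, 0.02% NaN3, 0.01% BSA, 0.1 mM orthovanadate. Activity measured across compound concentrations against no-inhibitor controls, with no-enzyme wells as baseline.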
# Target sequence in this assay (Q06187 whole entry, species assumed): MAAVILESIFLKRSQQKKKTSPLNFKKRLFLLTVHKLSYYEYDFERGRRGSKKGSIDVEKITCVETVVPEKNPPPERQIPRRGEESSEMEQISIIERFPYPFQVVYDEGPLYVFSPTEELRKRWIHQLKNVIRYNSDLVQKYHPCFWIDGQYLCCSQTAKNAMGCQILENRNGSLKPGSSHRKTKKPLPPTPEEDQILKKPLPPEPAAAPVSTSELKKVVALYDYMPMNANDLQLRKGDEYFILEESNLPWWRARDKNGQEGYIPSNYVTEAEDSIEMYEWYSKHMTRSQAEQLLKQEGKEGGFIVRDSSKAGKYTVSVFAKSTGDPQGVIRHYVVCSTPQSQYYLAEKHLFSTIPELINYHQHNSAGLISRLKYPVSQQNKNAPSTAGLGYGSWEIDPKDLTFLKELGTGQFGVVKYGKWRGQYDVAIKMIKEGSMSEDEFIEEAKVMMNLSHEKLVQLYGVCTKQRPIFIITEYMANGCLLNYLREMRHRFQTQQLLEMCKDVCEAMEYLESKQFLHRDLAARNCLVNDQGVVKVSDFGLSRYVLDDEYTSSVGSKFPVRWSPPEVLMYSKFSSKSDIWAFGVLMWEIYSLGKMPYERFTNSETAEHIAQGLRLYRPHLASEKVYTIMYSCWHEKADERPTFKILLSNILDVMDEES
# [2] = molecular target: T1, BTK; assay: Btk occupancy in cellular assays (PCI-33380 labeling, Jeko-1 cells); format: cell-based; details: 1.5 h pre-incubation with compound, PCI-33380 5 μM 1 h
# Experimental: Btk Occupancy in Cellular Assays
# For PCI-33380 labeling of human B cells, 10^6 Jeko-1 cells were pre-incubated with compound for 1.5 h before labeling. Then cells were treated with PCI-33380 at 5 μM for 1 h. Washed, lysed in Ripa buffer containing sample reducing agent, and analyzed by SDS/PAGE and fluorescent gel scanning using a Typhoon scanner 9500 (GE Healthcare) (Ex, 532 nm; Em, 555 nm). The gel was then blotted and total Btk levels detected by standard Western blot with Btk antibody (CST).
# Target sequence in this assay (Q06187 whole entry): as the sequence (Q06187 whole entry, species assumed) above
# [3] = molecular target: Btk (Mus musculus (Mouse), UniProt P35991); assay: Btk occupancy in vivo (PBMCs or splenocytes, PCI-33380 labeling); details: after 4 hours, Babc/L mice
# Experimental: For analysis of Btk occupancy in Babc/L mice following oral dosing of compounds after 4 hours. Isolating peripheral blood mononuclear cells (PBMCs) with mouse peripheral blood separation kit (Hao Yang Biological Manufacture CO., LTD, Tianjin) were collected from Babc/L mice (1 ml blood from two mice). Spleens were processed to splenocytes followed by 5 min incubation in red blood cell lysing buffer (from mouse peripheral blood separation kit). PBMCs or splenocytes were then PCI-33380-labeled and lysates analyzed by fluorescent gel scanning as described in cellular assays.
# [4] = test system: Ramos cells; assay: Calcium flux assay, anti-IgM stimulated Ramos cells; format: cell-based; details: Ramos cells stimulated with goat anti-human IgM antibody 10 μg/ml; read-out: Ramos Ca Flux
# Experimental: Calcium FluxAssay Calcium flux fluorescence-based assays were performed in […] (Hamamatsu Photonics) fluorometric imaging plate reader according to manufacturer instructions. […] Then 12.5 […] 2× dye loading solution (Fluo-4 NW Calcium Assay Kits, Invitrogen) was added per well of a 384-well plate. Afterwards, actively growing Ramos cells (ATCC) in RPM1640 medium supplemented with 10% FBS (Invitrogen) were washed and re-plated in assay buffer (from Fluo-4 NW Calcium Assay Kits, Invitrogen) to approximately 6.4×10^6/ml (80000 cells/12.5 μL in 384-well plates). The plates were incubated at 37° C. for 30 minutes, then at room temperature for an additional 30 minutes. The plates were now ready to be used in an experiment. Immediately after the transfer and a 10-s recording of baseline fluorescence, the compound treated cells were stimulated with a goat anti-human IgM antibody (10 μg/ml; Jackson Immuno Research) and read in a FDSS for 240 seconds. Difference between the signal and that at baseline, designated adjusted relative fluorescence unit, was calculated by using a custom Excel (Microsoft, Redmond, Wash.) template to determine IgM-induced calcium influx and its inhibition by compounds. The table belows show the result.
# Btk, sequence (P35991 whole entry): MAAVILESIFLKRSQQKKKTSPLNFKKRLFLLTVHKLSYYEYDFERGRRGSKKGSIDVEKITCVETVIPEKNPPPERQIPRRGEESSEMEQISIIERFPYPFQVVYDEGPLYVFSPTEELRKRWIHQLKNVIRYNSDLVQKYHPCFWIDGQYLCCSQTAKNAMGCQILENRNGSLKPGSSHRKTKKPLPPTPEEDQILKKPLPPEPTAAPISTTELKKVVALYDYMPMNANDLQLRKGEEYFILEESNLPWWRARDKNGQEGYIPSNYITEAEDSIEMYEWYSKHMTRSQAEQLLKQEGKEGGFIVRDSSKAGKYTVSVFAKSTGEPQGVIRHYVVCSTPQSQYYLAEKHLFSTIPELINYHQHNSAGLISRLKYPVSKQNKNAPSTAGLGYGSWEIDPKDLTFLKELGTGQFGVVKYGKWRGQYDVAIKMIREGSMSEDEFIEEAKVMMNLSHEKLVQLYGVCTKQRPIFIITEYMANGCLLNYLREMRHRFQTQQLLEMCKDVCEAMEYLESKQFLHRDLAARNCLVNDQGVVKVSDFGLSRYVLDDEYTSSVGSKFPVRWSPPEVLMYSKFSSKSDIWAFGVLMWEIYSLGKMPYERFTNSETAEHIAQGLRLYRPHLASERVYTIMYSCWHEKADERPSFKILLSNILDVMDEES
SMILES,IC50 [1] [nM],concentration sufficient to fully occupy the active site of Btk [2] [nM],IC50 [4] [nM],Btk occupancy in vivo ([3]; 5 mg/kg single oral dose),Btk occupancy in vivo ([3]; 10 mg/kg single oral dose)
"C=CC(=O)N1CCC[C@@H](n2nc(-c3ccc(Oc4cccc(OC)c4Cl)cc3)c3cnccc32)C1 [Compound 2, (R)-1-(3-(3-(4-(2-chloro-3-methoxyphenoxy)phenyl)-1H-pyrazolo[4,3-c]pyridin-1-yl)piperidin-1-yl)prop-2-en-1-one]",< 10,100,–,–,full occupancy
"C=CC(=O)N1CC[C@@H](n2nc(-c3ccc(Oc4cccc(OC)c4F)cc3)c3cnccc32)C1 [Compound 3, (R)-1-(3-(3-(4-(2-fluoro-3-methoxyphenoxy)phenyl)-1H-pyrazolo[4,3-c]pyridin-1-yl)pyrrolidin-1-yl)prop-2-en-1-one]",< 10,50,–,–,full occupancy
"C=CC(=O)N1CC[C@@H](n2nc(-c3ccc(Oc4cccc(F)c4Cl)cc3)c3cnccc32)C1 [Compound 4, (R)-1-(3-(3-(4-(2-chloro-3-fluorophenoxy)phenyl)-1H-pyrazolo[4,3-c]pyridin-1-yl)pyrrolidin-1-yl)prop-2-en-1-one]",< 10,100,–,–,full occupancy
"C=CC(=O)N1CC[C@@H](n2nc(-c3ccc(Oc4ccccc4)c(Cl)c3)c3cnccc32)C1 [Compound 11, (R)-1-(3-(3-(3-chloro-4-phenoxyphenyl)-1H-pyrazolo[4,3-c]pyridin-1-yl)pyrrolidin-1-yl)prop-2-en-1-one]",< 10,–,100 to 1000,–,–
"C=CC(=O)N1CCC[C@@H](n2nc(-c3ccc(Oc4cccc(F)c4F)cc3)c3cnccc32)C1 [Compound 17, (R)-1-(3-(3-(4-(2,3-difluorophenoxy)phenyl)-1H-pyrazolo[4,3-c]pyridin-1-yl)piperidin-1-yl)prop-2-en-1-one]",< 10,100,10 to 100,–,–
"C=CC(=O)N1CC[C@@H](n2nc(-c3ccc(Oc4cccc(F)c4F)cc3)c3cnccc32)C1 [Compound 18, (R)-1-(3-(3-(4-(2,3-difluorophenoxy)phenyl)-1H-pyrazolo[4,3-c]pyridin-1-yl)pyrrolidin-1-yl)prop-2-en-1-one]",< 10,–,10 to 100,–,–
"C=CC(=O)N1CC[C@@H](n2nc(-c3ccc(Oc4cccc(Cl)c4F)cc3)c3cnccc32)C1 [Compound 19, (R)-1-(3-(3-(4-(3-chloro-2-fluorophenoxy)phenyl)-1H-pyrazolo[4,3-c]pyridin-1-yl)pyrrolidin-1-yl)prop-2-en-1-one]",< 10,–,10 to 100,–,–
"C=CC(=O)N1CCC[C@@H](n2nc(-c3ccc(Oc4cccc(Cl)c4F)cc3)c3cnccc32)C1 [Compound 20, (R)-1-(3-(3-(4-(3-chloro-2-fluorophenoxy)phenyl)-1H-pyrazolo[4,3-c]pyridin-1-yl)piperidin-1-yl)prop-2-en-1-one]",< 10,–,10 to 100,–,–

# Second part, led by results:
IC50 [1] [nM],concentration sufficient to fully occupy the active site of Btk [2] [nM],IC50 [4] [nM],Btk occupancy in vivo ([3]; 5 mg/kg single oral dose),SMILES,Btk occupancy in vivo ([3]; 10 mg/kg single oral dose)
< 10,100,10 to 100,–,"C=CC(=O)N1CC[C@@H](n2nc3ccncc3c2-c2ccc(Oc3cccc(Cl)c3Cl)cc2)C1 [Compound 41, (R)-1-(3-(3-(4-(2,3-dichlorophenoxy)phenyl)-2H-pyrazolo[4,3-c]pyridin-2-yl)pyrrolidin-1-yl)prop-2-en-1-one]",–
< 10,100,10 to 100,–,"C=CC(=O)N1CCC[C@@H](n2nc3ccncc3c2-c2ccc(Oc3cccc(Cl)c3Cl)cc2)C1 [Compound 43, (R)-1-(3-(3-(4-(2,3-dichlorophenoxy)phenyl)-2H-pyrazolo[4,3-c]pyridin-2-yl)piperidin-1-yl)prop-2-en-1-one]",–
< 10,–,10 to 100,–,"C=CC(=O)N1CC[C@@H](n2nc(-c3ccc(Sc4cccc(F)c4)cc3)c3cnccc32)C1 [Compound 58, (R)-1-(3-(3-(4-((3-fluorophenyl)thio)phenyl)-1H-pyrazolo[4,3-c]pyridin-1-yl)pyrrolidin-1-yl)prop-2-en-1-one]",–
< 10,–,100 to 1000,–,"C=CC(=O)N1CC[C@@H](n2nc(-c3ccc(Oc4ccccc4)c(F)c3)c3cnccc32)C1 [Compound 61, (R)-1-(3-(3-(3-fluoro-4-phenoxyphenyl)-1H-pyrazolo[4,3-c]pyridin-1-yl)pyrrolidin-1-yl)prop-2-en-1-one]",–
< 10,–,100 to 1000,–,"C=CC(=O)N1CCC[C@@H](n2nc(-c3ccc(Oc4cccc(F)c4)cc3)c3cnccc32)C1 [Compound 62, (R)-1-(3-(3-(4-(3-fluorophenoxy)phenyl)-1H-pyrazolo[4,3-c]pyridin-1-yl)piperidin-1-yl)prop-2-en-1-one]",–
< 10,–,100 to 1000,–,"C=CC(=O)N1CC[C@@H](n2nc(-c3ccc(Oc4cccc(F)c4)cc3)c3cnccc32)C1 [Compound 63, (R)-1-(3-(3-(4-(3-fluorophenoxy)phenyl)-1H-pyrazolo[4,3-c]pyridin-1-yl)pyrrolidin-1-yl)prop-2-en-1-one]",–
< 10,–,10 to 100,–,"C=CC(=O)N1CC[C@@H](n2nc(-c3ccc(Oc4cccc(OC)c4)cc3)c3cnccc32)C1 [Compound 64, (R)-1-(3-(3-(4-(3-methoxyphenoxy)phenyl)-1H-pyrazolo[4,3-c]pyridin-1-yl)pyrrolidin-1-yl)prop-2-en-1-one]",–
< 10,100,–,–,"C=CC(=O)N1CCC[C@@H](n2nc(-c3ccc(Oc4cccc(OC)c4F)cc3)c3cnccc32)C1 [Compound 71, (R)-1-(3-(3-(4-(2-fluoro-3-methoxyphenoxy)phenyl)-1H-pyrazolo[4,3-c]pyridin-1-yl)piperidin-1-yl)prop-2-en-1-one]",full occupancy
< 10,100,–,full occupancy,"C=CC(=O)N1CCC[C@@H](n2nc(-c3ccc(Oc4cccc(OC)c4F)cc3)c3cncc(OCC)c32)C1 [Compound 73, (R)-1-(3-(7-ethoxy-3-(4-(2-fluoro-3-methoxyphenoxy)phenyl)-1H-pyrazolo[4,3-c]pyridin-1-yl)piperidin-1-yl)prop-2-en-1-one]",–
< 10,–,–,full occupancy,"C=CC(=O)N1CCCC1Cn1nc(-c2ccc(Oc3cccc(OC)c3F)cc2)c2cncc(OC)c21 (centres unmarked) [Compound 91, 1-(2-((3-(4-(2-fluoro-3-methoxyphenoxy)phenyl)-7-methoxy-1H-pyrazolo[4,3-c]pyridin-1-yl)methyl)pyrrolidin-1-yl)prop-2-en-1-one]",–
